Assay results taken from ChEMBL document CHEMBL1158028, “Triterpene saponins from Eryngium campestre” (J Nat Prod, 2006).
In brackets after ≈: the same amount, converted by molar mass.

Columns and labels:
[1] = Cytotoxicity against human HCT 116 cells by MTT assay; type: functional, cell-based
[2] = tested on: HT-29; test: Cytotoxicity against human HT-29 cells by MTT assay; type: functional, cell-based

SMILES | IC50 [1] [mg/L] | IC50 [2] [mg/L]
C/C=C(/C)C(=O)O[C@H]1[C@H](OC(C)=O)C(C)(C)C[C@H]2C3=CC[C@@H]4[C@@]5(C)CC[C@H](O[C@@H]6O[C@H](C(=O)O)[C@@H](O)[C@H](O)[C@H]6O[C@H]6O[C@H](C)[C@@H](O)[C@H](O)[C@@H]6O)C(C)(C)[C@@H]5CC[C@@]4(C)[C@]3(C)[C@@H](O)[C@@H](O)[C@]21CO | 40 (≈ 42 µM) | 40 (≈ 42 µM)
C/C=C(/C)C(=O)O[C@H]1[C@H](O)C(C)(C)C[C@H]2C3=CC[C@@H]4[C@@]5(C)CC[C@H](O[C@@H]6O[C@H](C(=O)O)[C@@H](O)[C@H](O)[C@H]6O[C@H]6O[C@H](C)[C@@H](O)[C@H](O)[C@@H]6O)C(C)(C)[C@@H]5CC[C@@]4(C)[C@]3(C)[C@@H](O)[C@@H](O)[C@]21COC(C)=O | > 100 | > 100
CC(=O)OC1[C@H](OC(=O)C=C(C)C)[C@]2(CO)[C@H](O)[C@H](O)[C@]3(C)C(=CC[C@@H]4[C@@]5(C)CC[C@H](O[C@@H]6O[C@H](C(=O)O)[C@@H](O)[C@H](O)[C@H]6O[C@H]6O[C@H](C)[C@@H](O)[C@H](O)[C@@H]6O)C(C)(C)[C@@H]5CC[C@]43C)[C@@H]2CC1(C)C (stereo not given in full) | 40 (≈ 42 µM) | 40 (≈ 42 µM)
CC(C)=CC(=O)O[C@H]1CC(C)(C)C[C@H]2C3=CC[C@@H]4[C@@]5(C)CC[C@H](O[C@@H]6O[C@H](C(=O)O)[C@@H](O)[C@H](O)[C@H]6O[C@H]6O[C@H](C)[C@@H](O)[C@H](O)[C@@H]6O)C(C)(C)[C@@H]5CC[C@@]4(C)[C@]3(C)[C@@H](O)[C@@H](O)[C@@]12CO | 40 (≈ 44.7 µM) | 40 (≈ 44.7 µM)
CC(C)=CC(=O)O[C@H]1CC(C)(C)C[C@H]2C3=CC[C@@H]4[C@@]5(C)CC[C@H](O[C@@H]6O[C@H](C(=O)O)[C@@H](O[C@H]7O[C@H](C)[C@@H](O)[C@H](O)[C@@H]7O)[C@H](O)[C@H]6O[C@@H]6O[C@H](CO)[C@@H](O)[C@H](O)[C@H]6O)C(C)(C)[C@@H]5CC[C@@]4(C)[C@]3(C)[C@@H](O)[C@@H](O)[C@@]12CO | 40 (≈ 37.8 µM) | 40 (≈ 37.8 µM)
C/C=C(/C)C(=O)O[C@H]1[C@H](O)C(C)(C)C[C@H]2C3=CC[C@@H]4[C@@]5(C)CC[C@H](O[C@@H]6O[C@H](C(=O)O)[C@@H](O[C@@H]7O[C@@H](C)[C@H](O)[C@@H](O)[C@H]7O)[C@H](O)[C@H]6O[C@H]6O[C@@H](CO)[C@H](O)[C@@H](O)[C@@H]6O)C(C)(C)[C@@H]5CC[C@@]4(C)[C@]3(C)[C@@H](O)[C@@H](O)[C@]21CO | > 100 | > 100
CC(=O)O[C@H]1C(=O)[C@@]2(C)[C@H]([C@H](OC(=O)c3ccccc3)[C@]3(O)C[C@H](OC(=O)[C@H](O)[C@@H](NC(=O)c4ccccc4)c4ccccc4)C(C)=C1C3(C)C)[C@]1(OC(C)=O)CO[C@@H]1C[C@@H]2O [PACLITAXEL] | 0.008 (≈ 0.00937 µM) | 
C/C=C(/C)C(=O)O[C@H]1[C@H](O)C(C)(C)C[C@H]2C3=CC[C@@H]4[C@@]5(C)CC[C@H](O[C@@H]6O[C@H](C(=O)O)[C@@H](O)[C@H](O)[C@H]6O[C@H]6O[C@H](C)[C@@H](O)[C@H](O)[C@@H]6O)C(C)(C)[C@@H]5CC[C@@]4(C)[C@]3(C)[C@@H](O)[C@@H](O)[C@]21CO | 40 (≈ 43.9 µM) | 40 (≈ 43.9 µM)
